Laboratory results reported in article PMC9422132, “Membrane transporters control cerebrospinal fluid formation independently of conventional osmosis to modulate intracranial pressure” (Fluids and Barriers of the CNS, 2022).

Target: T1, NBCe2 (Rattus norvegicus, UniProt Q6RI88)
T1 construct: gene Slc4a5
T1 sequence (Q6RI88 1-1112): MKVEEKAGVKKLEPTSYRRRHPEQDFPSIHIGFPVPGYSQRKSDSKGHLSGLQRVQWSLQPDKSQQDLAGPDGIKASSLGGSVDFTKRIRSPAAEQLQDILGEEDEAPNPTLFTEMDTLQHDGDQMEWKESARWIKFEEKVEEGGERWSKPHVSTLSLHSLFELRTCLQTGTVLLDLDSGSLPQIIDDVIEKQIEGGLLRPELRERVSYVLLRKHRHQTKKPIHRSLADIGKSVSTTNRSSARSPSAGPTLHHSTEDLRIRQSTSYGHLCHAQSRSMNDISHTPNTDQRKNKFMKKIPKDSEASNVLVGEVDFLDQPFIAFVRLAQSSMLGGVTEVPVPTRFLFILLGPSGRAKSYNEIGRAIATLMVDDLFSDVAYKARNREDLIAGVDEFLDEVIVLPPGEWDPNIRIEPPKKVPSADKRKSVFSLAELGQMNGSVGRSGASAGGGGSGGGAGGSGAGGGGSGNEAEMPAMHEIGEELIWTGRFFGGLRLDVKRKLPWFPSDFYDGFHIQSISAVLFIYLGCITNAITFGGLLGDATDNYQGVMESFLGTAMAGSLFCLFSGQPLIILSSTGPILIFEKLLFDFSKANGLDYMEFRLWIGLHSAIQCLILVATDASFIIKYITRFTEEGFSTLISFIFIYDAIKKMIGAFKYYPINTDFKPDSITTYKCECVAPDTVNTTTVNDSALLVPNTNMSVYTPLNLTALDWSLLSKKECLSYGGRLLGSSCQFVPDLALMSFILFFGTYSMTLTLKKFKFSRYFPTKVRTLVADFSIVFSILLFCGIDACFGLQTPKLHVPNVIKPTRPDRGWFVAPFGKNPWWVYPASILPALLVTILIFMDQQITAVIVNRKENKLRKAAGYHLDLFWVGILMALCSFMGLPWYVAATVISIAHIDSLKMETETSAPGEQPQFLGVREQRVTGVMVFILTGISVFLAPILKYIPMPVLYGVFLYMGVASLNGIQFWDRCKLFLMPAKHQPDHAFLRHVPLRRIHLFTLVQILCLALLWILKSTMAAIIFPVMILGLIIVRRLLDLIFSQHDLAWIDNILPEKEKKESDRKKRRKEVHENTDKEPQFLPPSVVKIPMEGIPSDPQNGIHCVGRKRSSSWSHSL
Test: two-electrode voltage clamp of rat NBCe2 expressed in Xenopus laevis oocytes
Assay type: cell-based

Q: How did the IC50 turn out when O=S(=O)(O)c1cc(N=C=S)ccc1/C=C/c1ccc(N=C=S)cc1S(=O)(=O)O [DIDS] was run?
A: The IC50 was 4.5 ± 1.8 µM.

Q: With Cc1ccc(CN(Cc2ccc(-c3ccccc3S(=O)(=O)NC#N)cc2)C(=O)c2ccccc2Cl)cc1 [S0859] as the compound, how does the IC50 read?
A: Its IC50 is 10.7 ± 0.9 µM.
